Source: the supplement of paper PMC10307832

Tests used:
Test in all cases: relative viability (nuclei count vs DMSO), 5 days (fraction); higher = more cells survive
Metformin + Palbociclib = compound: CN(C)C(=N)NC(=N)N [Metformin] + CC(=O)c1c(C)c2cnc(Nc3ccc(N4CCNCC4)cn3)nc2n(C2CCCC2)c1=O [Palbociclib] (partner 0.5 µM)
How it was run: (§1)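 Nuclei were stained with Hoechst during a one-step fixation (final 0.05% Triton X-100, 1% formaldehyde, 1 ug/ml Hoechst) carried out 5 days after dosing, then counted on 4× images. The cells, lung cancer lines in 1536-well plates, had been dosed by pin tool the day after seeding with one drug alone or a fixed anchor-drug dose plus five library-drug doses (not always all listed) in √10 steps. Relative viability is the nuclei count in treated wells divided by that in vehicle wells, and each value is the median of duplicate plates.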

Metformin + Luminespib = compound: CN(C)C(=N)NC(=N)N [Metformin] + CCNC(=O)c1noc(-c2cc(C(C)C)c(O)cc2O)c1-c1ccc(CN2CCOCC2)cc1 [Luminespib] (partner 0.01 µM)
How it was run: as §1

Metformin + AZD7762 = compound: CN(C)C(=N)NC(=N)N [Metformin] + NC(=O)Nc1cc(-c2cccc(F)c2)sc1C(=O)N[C@H]1CCCNC1 [AZD7762] (partner 0.2 µM)
How it was run: as §1

Apatinib + Palbociclib = compound: N#CC1(c2ccc(NC(=O)c3cccnc3NCc3ccncc3)cc2)CCCC1 [Apatinib] + CC(=O)c1c(C)c2cnc(Nc3ccc(N4CCNCC4)cn3)nc2n(C2CCCC2)c1=O [Palbociclib] (partner 0.5 µM)
How it was run: as §1

Cell Line | relative viability (Metformin + Palbociclib; first compound 31.62 µM) | relative viability (Metformin + Palbociclib; first compound 100 µM) | relative viability (Metformin + Palbociclib; first compound 316.23 µM) | relative viability (Metformin + Palbociclib; first compound 1000 µM) | relative viability (Metformin + Luminespib; first compound 31.62 µM) | relative viability (Metformin + Luminespib; first compound 100 µM) | relative viability (Metformin + Luminespib; first compound 316.23 µM) | relative viability (Metformin + Luminespib; first compound 1000 µM) | relative viability (Metformin + AZD7762; first compound 31.62 µM) | relative viability (Metformin + AZD7762; first compound 100 µM) | relative viability (Metformin + AZD7762; first compound 316.23 µM) | relative viability (Metformin + AZD7762; first compound 1000 µM) | relative viability (Apatinib + Palbociclib; first compound 0.08 µM) | relative viability (Apatinib + Palbociclib; first compound 0.253 µM) | relative viability (Apatinib + Palbociclib; first compound 0.8 µM) | relative viability (Apatinib + Palbociclib; first compound 2.53 µM) | relative viability (Apatinib + Palbociclib; first compound 8 µM) | relative viability (Metformin + Luminespib; first compound 10 µM) | relative viability (Metformin + AZD7762; first compound 10 µM) | relative viability (Metformin + Palbociclib; first compound 10 µM)
NCI-H441 | 0.211 | 0.165 | 0.215 | 0.238 | 0.241 | 0.336 | 0.28 | 0.373 | 0.7 | 1.05 | 0.982 | 1.06 | 0.234 | 0.217 | 0.219 | 0.211 | 0.212 | – | – | –
LCLC-97TM1 | 0.239 | 0.321 | 0.209 | 0.21 | 0.861 | 0.922 | 0.7 | 0.76 | 0.244 | 0.205 | 0.27 | 0.306 | 0.238 | 0.276 | 0.193 | 0.204 | 0.173 | 0.75 | 0.205 | –
RERF-LC-KJ | 1.04 | 0.896 | 0.823 | 0.993 | 1.15 | 0.979 | 0.808 | 0.864 | 0.927 | 0.572 | 0.799 | 1 | 1.11 | 1.1 | 0.467 | 1.05 | 0.984 | 1.11 | 0.703 | 0.907
NCI-H2170 | 0.389 | 0.386 | 0.354 | 0.391 | 0.677 | 0.766 | 0.68 | 0.632 | 0.836 | 0.869 | 0.745 | 0.913 | 0.387 | 0.382 | 0.362 | 0.379 | 0.298 | 0.571 | 0.74 | 0.334
NCI-H1793 | 0.39 | 0.387 | 0.353 | 0.361 | – | 0.147 | 0.16 | 0.235 | 0.47 | 0.784 | 0.396 | 0.505 | 0.35 | 0.284 | 0.349 | 0.264 | 0.27 | 0.22 | 0.535 | 0.297
NCI-H2405 | 0.498 | 0.485 | 0.487 | 0.344 | 0.581 | 0.774 | 0.664 | 0.737 | 0.866 | 0.831 | 0.722 | 0.515 | 0.528 | 0.569 | 0.546 | 0.513 | 0.479 | 0.585 | – | –
NCI-H1792 | 0.663 | 0.817 | 0.698 | 0.238 | 0.57 | 0.789 | 0.418 | 0.485 | 0.667 | 0.539 | 0.56 | 0.796 | 0.662 | 0.651 | 0.577 | 0.633 | 0.622 | 0.599 | 0.598 | –
NCI-H727 | 0.78 | 0.818 | – | 0.618 | 0.496 | 0.387 | – | 0.477 | 0.624 | 0.565 | – | 0.525 | 0.731 | – | 0.642 | 0.653 | 0.714 | 0.566 | 0.655 | 0.672
NCI-H650 | 0.278 | 0.385 | 0.326 | 0.348 | 1.03 | 1.06 | 0.92 | 1.09 | 1.22 | 0.896 | 0.835 | 1.18 | 0.316 | 0.337 | 0.372 | 0.272 | 0.264 | 0.953 | 1.03 | 0.33
NCI-H838 | 0.278 | 0.261 | 0.271 | 0.298 | 0.289 | 0.291 | 0.237 | 0.251 | 0.947 | 0.989 | 0.99 | 0.94 | 0.229 | 0.261 | 0.206 | 0.215 | 0.217 | 0.258 | 0.972 | 0.295
LK-2 | 0.837 | 0.706 | 0.718 | 0.877 | 0.17 | 0.196 | 0.2 | 0.191 | 0.454 | 0.512 | 0.361 | 0.548 | 0.762 | 0.481 | 0.758 | 0.484 | 0.356 | 0.203 | 0.359 | 0.86
NCI-H1993 | 0.701 | 0.739 | 0.576 | 0.67 | 1.09 | 0.713 | 0.856 | 0.934 | 0.656 | 0.744 | 0.716 | 0.9 | 0.783 | 0.736 | 0.597 | 0.528 | 0.616 | 0.994 | 0.714 | 0.63
NCI-H1437 | 0.459 | 0.439 | 0.389 | 0.4 | 1.16 | 1.19 | 1.08 | 1.12 | 1.1 | 1.07 | 1.09 | 0.551 | 0.314 | 0.3 | 0.277 | 0.254 | 0.209 | 1.15 | 1.17 | 0.384
H3255 | 0.35 | 0.307 | 0.309 | 0.321 | 1.01 | 0.88 | 0.657 | 0.867 | 0.853 | 0.814 | 0.845 | 0.738 | 0.339 | 0.306 | 0.319 | 0.305 | 0.285 | 0.858 | 0.898 | 0.309
NCI-H322M | 0.495 | 0.512 | 0.551 | 0.488 | 0.884 | 1.05 | 0.912 | 0.826 | 0.641 | 0.649 | 0.464 | 0.566 | 0.464 | 0.539 | 0.499 | 0.51 | 0.57 | 0.831 | 0.569 | 0.54
LCLC-103H | 0.561 | 0.532 | 0.437 | 0.495 | 1.18 | 1.06 | 0.961 | 1.04 | 0.852 | 0.748 | 0.663 | 0.883 | 0.513 | 0.436 | 0.426 | 0.465 | 0.483 | 0.934 | 0.714 | 0.465
CAL-12T | 0.53 | 0.488 | 0.384 | 0.423 | 0.775 | 0.447 | 0.699 | 0.417 | 0.718 | 0.638 | 0.646 | 0.659 | 0.448 | 0.56 | 0.465 | 0.485 | 0.367 | 0.253 | 0.659 | 0.579
PC-14 | 0.586 | 0.547 | 0.461 | 0.539 | 0.18 | 0.202 | 0.289 | 0.502 | 0.343 | 0.383 | 0.304 | 0.392 | 0.555 | 0.619 | 0.493 | 0.611 | 0.33 | 0.373 | 0.31 | 0.533
NCI-H2347 | 0.453 | 0.404 | 0.382 | 0.408 | 1.03 | – | 0.537 | 0.791 | 0.892 | 0.856 | 0.771 | 0.862 | 0.469 | 0.407 | 0.452 | 0.384 | 0.392 | 0.328 | 0.662 | 0.443
NCI-H23 | 0.563 | 0.495 | 0.508 | 0.553 | 0.244 | 0.218 | 0.272 | 0.214 | 0.178 | 0.348 | 0.293 | 0.421 | 0.561 | 0.57 | 0.575 | 0.409 | 0.424 | 0.207 | 0.351 | 0.583
